Measurements published in patent US20200139012A1, “METHODS AND MATERIALS FOR IMMUNOMODULATION OF TISSUE GRAFTS” (UNIVERSITY OF WYOMING, priority 2018, published 2020).

Columns and labels:
immune cells = conditions: cited from earlier work; for in vitro effective concentration on immune cells: Table 1
[1] = Table 1; cited from earlier work
[2] = system: DRGs, motor neurons, and Schwann cells; conditions: 72 h; for Measures in vitro tolerated concentrations on PN cells: rat
Procedure: It is contemplated that delivery of immunosuppressive agents function within a favorable therapeutic window. PNs are comprised of three major nervous system cell types, motor neurons, sensory neurons, and Schwann cells. […] FIG. 1B illustrates data regarding the toxicity of tacrolimus to DRGs, motor neurons, and Schwann cells. FIG. 1C illustrates data regarding the toxicity of prednisolone to DRGs, motor neurons, and Schwann cells.
Cells (DRGs, motor neurons, and Schwann cells) were cultured for 72 hours in various concentration of the immunosuppressive drugs and viability was evaluated using the Alamar blue viability assay. ISV's were diluted into media using a maximum of 1% dimethylsulfoxide (DMSO).
FIG. 2B illustrates data regarding the viability of DRGs, motor neurons, and Schwann cells cultured in about 10 μM tracrolimus with differing concentrations of prednisolone.

Row | Structure (SMILES) | in vitro effective concentration on immune cells (immune cells) [nM] | effective dose for inhibiting activation and proliferation of immune cells (immune cells) | Effective clinical plasma concentration [1] [nM] | tolerated by the cells at doses up to [2] | Measures in vitro tolerated concentrations on PN cells [2] [µM]
1 | C[C@]12C=CC(=O)C=C1CC[C@@H]1[C@@H]2[C@@H](O)C[C@@]2(C)[C@H]1CC[C@]2(O)C(=O)CO [Prednisolone, prednisolone] | 240 | greater than 240 μM | 277 | up to 200 μM | 200
2 | C=CC[C@@H]1/C=C(\C)C[C@H](C)C[C@H](OC)[C@H]2O[C@@](O)(C(=O)C(=O)N3CCCC[C@H]3C(=O)O[C@H](/C(C)=C/[C@@H]3CC[C@@H](O)[C@H](OC)C3)[C@H](C)[C@@H](O)CC1=O)[C@H](C)C[C@@H]2OC [Tacrolimus, tacrolimus] | 0.5 to 1.0 | 50 to 100 µM | 21 | 10 to 25 µM | 10 to 25
